Reference: patent US12447238B2, “Antimicrobial tubular conduits” (SANIDRINK S.R.L., priority 2020, dated 2025)
Converted amounts (≈) assume the structure as drawn. Peptide text beside a SMILES is read from it.

How the values were obtained:
[1] = system: L. monocytogenes (LM2) (field strain); assay: IC50 by broth microdilution and plate count against L. monocytogenes; assay type: cell-based, Listeria monocytogenes; conditions: 6 hours at 37° C. in Fraser Broth, plate count
Procedure: (§1) The bactericidal activity of RiLK1 peptides was assessed against both Gram positive (Listeria monocytogenes LM2 and Staphylococcus aureus) and Gram negative (Salmonella typhimurium and Escherichia coli) pathogenic bacteria.
(§2) The assessment of the concentration of RiLK1 peptides capable of inhibiting 50% of bacterial growth (IC50) was performed by the broth microdilution assay as described in Wang HX and Ng TB (2003, Peptides 24:969-972).
(§3) Standard deviations were obtained from triplicate experiments for each peptide dilution, and the IC50s were determined using GraphPad Prism version 6.00 (Graph-Pad Software, La Jolla California USA).
(§4) All bactericidal activity assays were performed using 2-3 log CFUs (Colony Forming Units), which represents a realistic approximation of the contamination levels that may be contained in the tubular conduits for food or medical use.
All experimental conditions investigated used the plate count method to estimate the bactericidal activity of the peptides. Specifically, the numbers of colonies grown on agar plates seeded with the bacterial suspensions in the absence or presence of the individual peptide dilutions were counted and compared. Standard deviations were determined using statistical software. […]

E. coli (ATCC) [2] = assay type: cell-based, Escherichia coli; conditions: 6 h
Procedure: as §1, §2, §3, §4
All experimental conditions investigated used the plate count method to estimate the bactericidal activity of the peptides. Specifically, the numbers of colonies grown on agar plates seeded with the bacterial suspensions in the absence or presence of the individual peptide dilutions were counted and compared. Standard deviations were determined using statistical software.
A control stock suspension was prepared in which 10^3 CFUs of E. coli were inoculated in 10 ml of BPW (Oxoid, Basingstoke, UK). […]

[3] = system: L. monocytogenes (LM2) (field strain); assay: Minimum Bactericidal Concentration (MBC) against L. monocytogenes; assay type: cell-based, Listeria monocytogenes; conditions: 99.9% inhibition of bacterial growth on plates
Procedure: (§5) The evaluation of the Minimum Bactericidal Concentration (MBC), i.e., the lowest concentration of antimicrobial agent capable of 99.9% inhibition of bacterial growth on plates, was carried out as described in Bilikova et al, (2015, Peptides 68:190-196).

E. coli (ATCC) [4] = assay: Minimum Bactericidal Concentration (MBC) against E. coli; assay type: cell-based, Escherichia coli; conditions: 99.9% inhibition of bacterial growth on plates
Procedure: as §5

[5] = system: Aspergillus brasiliensis (ATCC 9341); assay type: cell-based
Procedure: The antifungal activity of the RiLK1 peptide was determined against Aspergillus brasiliensis. For this purpose, a stock culture was prepared in which 10^5 CFUs of A. brasiliensis were inoculated in 10 ml of buffered peptone water. A reference strain (ATCC 9341) was used for this fungal species. The culture was incubated for 6 h at 37° C. with the RiLK1 peptide at 25 μM concentrations.
At the same time, control samples were incubated without adding the peptide. 100 μl of the samples thus prepared were seeded on DG18 plates (Dichloran 18% Glycerol Agar—ISO 21527-2) and incubated at 25° C. for 7 days.
(§6) All experimental conditions investigated used the plate count method to estimate the fungicidal activity of the peptide. Specifically, the numbers of colonies grown on agar plates seeded with the fungal suspensions in the absence or presence of the individual peptide dilutions were counted and compared. The standard deviations of the triplicate incubations of each plate were determined using statistical software. The evaluation of the Minimum Fungicidal Concentration (MFC), i.e., the lowest concentration of antifungal agent capable of 99.9% inhibition of fungal growth on plates, was carried out as described in Bilikova et al, (2015, Peptides 68:190-196).

[6] = system: Candida albicans (ATCC 14053); assay type: cell-based
Procedure: The inhibitory activity of the RiLK1 peptide was determined against the yeast Candida albicans. A stock culture was prepared in which 10^5 CFUs of C. albicans were inoculated in 10 ml of buffered peptone water. A reference strain (ATCC 14053) was used for this species. The culture was incubated for 6 h at 37° C. with the RiLK1 peptide at 25 μM concentrations. At the same time, control samples were incubated without adding the peptide. 100 μl of the samples thus prepared were seeded on DG18 plates (Dichloran 18% Glycerol Agar—ISO 21527-2) and incubated at 25° C. for 7 days.
as §6, with “antimycotic” for “fungicidal”, “cultures” for “fungal suspensions”

E. coli = assay: Bactericidal activity of AMP peptides at 15 μM (CFU vs control), E. coli; assay type: cell-based; conditions: peptide 15 μM
Procedure: (§7) The bactericidal activity of further AMP peptides used in the invention, in particular of the RiLK31 peptide (RLRWVKIWKK, SEQ ID NO:31) and the RiLK3 peptide (RLRWVRIWRR, SEQ ID NO:3), was tested. The bactericidal activity was expressed as a percentage of viable cells in terms of CFU (Colony Forming Units) in a bacterial sample exposed to each peptide compared to those in a control bacterial sample in the absence of the peptide. All tests were carried out with the same peptide concentration, corresponding to 15 μM.

Staphylococcus = assay: Bactericidal activity of AMP peptides at 15 μM (CFU vs control), Staphylococcus; assay type: cell-based; conditions: peptide 15 μM
Procedure: as §7

Salmonella = assay: Bactericidal activity of AMP peptides at 15 μM (CFU vs control), Salmonella; assay type: cell-based; conditions: peptide 15 μM
Procedure: as §7

Listeria = assay: Bactericidal activity of AMP peptides at 15 μM (CFU vs control), Listeria; assay type: cell-based; conditions: peptide 15 μM
Procedure: as §7

**Q.** Which IC50 [1] does the source give for `CC[C@H](C)[C@H](NC(=O)[C@H](CCCNC(=N)N)NC(=O)[C@@H](NC(=O)[C@H](Cc1c[nH]c2ccccc12)NC(=O)[C@H](CCCCN)NC(=O)[C@H](CC(C)C)NC(=O)[C@@H](N)CCCNC(=N)N)C(C)C)C(=O)N[C@@H](Cc1c[nH]c2ccccc12)C(=O)N[C@@H](CCCNC(=N)N)C(=O)N[C@@H](CCCNC(=N)N)C(N)=O` [RiLK1, RLKWVRIWRR] (H-RLKWVRIWRR-NH2; N-terminus assumed) here?
**A.** The IC50 was 0.46 µM.

**Q.** What about the IC50 (E. coli (ATCC) [2]) of the same compound?
**A.** The IC50 was 1.2 µM.

**Q.** And the MBC [3]?
**A.** Its MBC is 2 µM (≈ 2.94 µg/mL).

**Q.** And the MBC (E. coli (ATCC) [4])?
**A.** The MBC was 2 µM (≈ 2.94 µg/mL).

**Q.** What about the “post-treatment decrease in the fungal load” value ([5]; A. brasiliensis, 25 μM peptide, 6 h at 37° C.) of the same compound?
**A.** Its value is 5 Log.

**Q.** What about the “Drop Log CFU/ml” value ([5]; A. brasiliensis, 10^5 CFUs, 25 μM peptide, 6 h at 37° C.) of the same compound?
**A.** The value was 5 Log CFU/ml.

**Q.** What about the MFC ([5]; ATCC 9341, 6 h) of the same compound?
**A.** The MFC was “less than or equal to 25 μM”.

**Q.** And the MFC ([6]; ATCC 14053, 6 h)?
**A.** The MFC was “less than or equal to 25 μM”.

**Q.** And the “post-treatment decrease in the fungal load” value ([6]; C. albicans, 25 μM peptide, 6 h at 37° C.)?
**A.** Its value is 5 Log.

**Q.** And the “Drop Log CFU/ml” value ([6]; C. albicans, 10^5 CFUs, 25 μM peptide, 6 h at 37° C.)?
**A.** Its value is 5 Log CFU/ml.

**Q.** And the “bactericidal activity expressed as a percentage of viable cells (CFU) vs control” value (E. coli)?
**A.** Its value is 100%.

**Q.** And the “bactericidal activity expressed as a percentage of viable cells (CFU) vs control” value (Staphylococcus)?
**A.** The value was 96.9%.

**Q.** And the “bactericidal activity expressed as a percentage of viable cells (CFU) vs control” value (Salmonella)?
**A.** Its value is 100%.

**Q.** What about the “bactericidal activity expressed as a percentage of viable cells (CFU) vs control” value (Listeria) of the same compound?
**A.** Its value is 99.5%.

**Q.** For RLRWVRIWRR (AMP) [RiLK3], which “bactericidal activity expressed as a percentage of viable cells (CFU) vs control” value (E. coli) is on record?
**A.** Its value is 100%.

**Q.** And the “bactericidal activity expressed as a percentage of viable cells (CFU) vs control” value (Staphylococcus)?
**A.** Its value is 96%.

**Q.** What about the “bactericidal activity expressed as a percentage of viable cells (CFU) vs control” value (Salmonella) of the same compound?
**A.** The value was 100%.

**Q.** And the “bactericidal activity expressed as a percentage of viable cells (CFU) vs control” value (Listeria)?
**A.** Its value is 99%.

**Q.** Which “bactericidal activity expressed as a percentage of viable cells (CFU) vs control” value (E. coli) does the source give for RLRWVKIWKK (AMP) [RiLK31] here?
**A.** The value was 100%.

**Q.** What about the “bactericidal activity expressed as a percentage of viable cells (CFU) vs control” value (Staphylococcus) of the same compound?
**A.** The value was 83%.

**Q.** What about the “bactericidal activity expressed as a percentage of viable cells (CFU) vs control” value (Salmonella) of the same compound?
**A.** The value was 100%.

**Q.** What about the “bactericidal activity expressed as a percentage of viable cells (CFU) vs control” value (Listeria) of the same compound?
**A.** Its value is 98.8%.
